Assay results reported in patent US6818407B2, “Anti-endotoxic antimicrobial cationic peptides and methods of use therfor” (priority 1998, dated 2004).
Marks after values point to notes of the source that are not given here.

Assays:
[1] = system: RAW 264.7; experiment: Inhibition of LPS-induced TNF production by RAW 264.7 macrophage cell line; format: cell-based, murine; settings: E. coli LPS 100 ng/ml, peptide 20 μg/ml, 6 hr; FIG. 2
Procedure: (§1) LPS (endotoxin) binding was examined by the dansyl polymyxin binding assay. All peptides bound to LPS (FIG. 1). The anti-endotoxic activity of the peptides was tested in the murine cell line RAW 264.7 which was obtained from the ATCC (ATCC #TIB-71), (Rockville, Md.). TNF induction experiments with LPS were performed as described by Kelly et al (Infect. Immun., 59:4491-6, 1991). Briefly, Dulbecco's modified Eagle medium was aspirated from RAW 264.7 cells grown overnight in 24-well tissue culture plates after seeding with 10^6 cells per ml per well and replaced with fresh medium. LPS at a final concentration of 100 ng/ml, was incubated with the cells for 6 hr. at 37° C. in 5% CO2 prior to assaying for cytokine production. At the same time as LPS addition, cationic peptides were added at a final concentration of 20 μg/ml. All assays were performed three times with similar results.
(§2) TNF was measured in cell culture supernatants and mouse serum on the basis of cytoxicity for L929 fibroblast cells. […] TNF activity was expressed in units as the reciprocal of the dilution of TNF that caused 50% cytotoxicity of L929 cells, as computed using the ELISA+program (Meddata Inc, New York, N.Y.). For the current study, one unit of TNF corresponded to 62.5 pg/ml of recombinant murine TNF (Genzyme Corp.) IL-6 production was measured by ELISA with specific antibody.

[2] = system: P. aeruginosa gyrase mutant (Nal A, H374); format: cell-based
Procedure: The biological activity of the peptides can be determined by standard methods known to those of skill in the art, such as Aminimal inhibitory concentration (MIC)≅ assay described in the present examples, whereby the lowest concentration at which no change in OD is observed for a given period of time is recorded as MIC. Alternatively, Afractional inhibitory concentration (FIC)≅ is also useful for determination of synergy between the peptides of the invention, or the peptides in combination with known antibiotics. FICs are performed by checkerboard titrations of peptides in one dimension of a microtiter plate, and of antibiotics in the other dimension, for example. The FIC is calculated by looking at the impact of one antibiotic on the MIC of the other and vice versa. […] Preferably, an FIC of less than 0.5 is obtained for synergism. As used herein, FIC can be determined as follows: [formula]
To test whether the peptides of the invention synergize with various antibiotics, the following method was employed. Fractional Inhibitory Concentration (FIC) was used to determine synergy of peptides combined with antibiotics (e.g., carbenicillin/ciprofloxacin) against Pseudomonas aeruginosa. The following methodology was followed:
(1) Determination of MIC of cationic peptides (MIC A):
100 μl Mueller Hinton broth (MHB) was added per well
12.5 μl of 10× test concentration peptide was added per well to get final peptide concentration of e.g., 128, 64, 32, . . . 0.025 μg/ml from row 1 to 11;
10 μl of 10^−4 dilution of overnight bacterial culture was added per well.
(2) Determination of MIC of Carbenicillin/Ciprofloxacin (MIC B):
100 μl MHB was added per well;
100 μl of 2× test concentration of antibiotic was added in the first well of the row, and doubling dilutions performed across the plate from column 1 to 11;
(3) Determination of MIC of antibiotics (B) when combined with peptides at concentration A:
100 μl Carbenicillin (512 μg/ml) or Ciprofloxacin (8 μg/ml) was added in each well of column 1; doubling dilutions were performed across the plate;
100 μl of the peptide was added in all wells of row 1, mixed, and 100 μl withdrawn and added to row 2, etc., creating a checkerboard titration.
10 μl of 10^−4 dilution of overnight culture was added per well;
plates were incubated at 37EC for 18-24 hours. Combination MIC values A and B were taken as the lowest concentration of drug that reduced bacterial growth by more than 50% in any given column.
(4) FIC index=FICA+FICB=(A)/MIC A+(B)/MIC B. An FIC index of approximately 0.5 or less indicates synergy; 1.0 reflects additivity; and >1.0 indicates antagonism.

[3] = system: P. aeruginosa efflux mutant (Nal B, H744); experiment: microbe, parasite or virus in culture; format: cell-based
[4] = system: RAW 264.7; experiment: Suppression of LPS-induced IL-6 production by RAW 264.7 macrophage cell line; format: cell-based, murine; settings: LPS 100 ng/ml, peptide 20 μg/ml, 6 hr, ELISA, FIG. 3
Procedure: as §1, §2

[5] = system: Pseudomonas aeruginosa PAO; experiment: Chronic Pseudomonas aeruginosa lung infection in rats, aerosol treatment; format: in vivo; settings: lungs, quantitative culture; aerosol 10 ml of 5 mg/ml once daily for three days; untreated control 1.2 × 10^6
Procedure: Fifteen animals were utilized in these experiments (5 animals in each of three groups). All animals were inoculated intratracheal with 10^4 Pseudomonas aeruginosa PAO in agar beads. Three days following inoculation, rats were exposed to aerosol preparations from and Aero-Tech II nebulizer (CIS-US, Bedford, Mass.). The nebulizer was operated at 45 psi, with a flow rate of 10 L/min and contained 10 ml of the preparation to be aerosolized. The 10 ml volume was dispensed in 25-30 minutes. Animals were treated once daily for three days; control animals received daily exposure to 10 mls of 10 mM sodium citrate (pH 7.0); one treatment group received daily exposure to 10 mls of 10 mM sodium citrate (pH 7.0) containing 5 mg/ml of CM3; one treatment group received daily exposure to 10 mls of 10 mM sodium citrate (pH 7.0) containing 5 mg/ml of Cpα2. Animals were sacrificed on day 3, at one hour following the last exposure. The lungs of the treatment and control animals were removed for quantitative culture.

[6] = system: S. epidermis; experiment: MIC, broth microdilution assay in polypropylene microtiter trays; format: cell-based; settings: average of three separate experiments
Outline: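 MIC values record the lowest peptide concentration at which turbidity (OD) remained unchanged throughout the assigned period.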

[7] = Lethal endotoxemia in galactosamine-sensitized mice; format: in vivo, CD-1 mice; settings: peptide 200 μg intraperitoneal within 10 min of 10 μg LPS; 24 hours post injection; 5 mice per group; no peptide 100
Procedure: To confirm this in vivo, endotoxic shock was induced by intraperitoneal injection of 10 μg of E.coli 0111:B4 LPS in phosphate-buffered saline (PBS; pH 7.2) into galactosamine-sensitized 8- to 10- week old female CD-1 mice (5 per group). In experiments involving peptides, 200 μg in 100 μl of sterile water was injected at separate intraperitoneal sites within 10 min of LPS injection. Survival was monitored at 24 hours post injection.

Compound | Inhibition of TNF production (neutralization of endotoxin) [1] | (B) MIC of Nal when combined with peptide ([2]; nalidixic acid with peptide at concentration (A), Nal A, unit from method) [µg/mL] | FIC index ([2]; peptide + nalidixic acid, Nal A) | MIC A MIC of Peptides ([2]; peptide alone, P. aeruginosa gyrase mutant Nal A) [µg/mL] | (A) Peptide doses together with Nal ([2]; peptide concentration in combination with nalidixic acid, Nal A) [µg/mL] | (B) MIC of Nal when combined with peptide ([3]; nalidixic acid with peptide at concentration (A), efflux mutant Nal B, H744, unit from method) [µg/mL] | FIC index ([3]; peptide + nalidixic acid, efflux mutant Nal B, H744) | MIC A MIC of Peptides ([3]; peptide alone, P. aeruginosa efflux mutant Nal B, H744 (Table 6)) [µg/mL] | (A) Peptide doses together with Nal ([3]; peptide concentration in combination with nalidixic acid, efflux mutant Nal B, H744) [µg/mL] | Suppression of IL-6 production [4] | Suppression of IL-6 production ([4]; listed as Cpα2) | Mean Colony Forming Units +/− S.D. [5] | MIC S. epidermis [6] [µg/mL] | Mortality (%) [7] [%]
CC[C@H](C)[C@H](NC(=O)CNC(=O)[C@@H](NC(=O)[C@H](CCCCN)NC(=O)[C@H](CCCCN)NC(=O)[C@@H](NC(=O)[C@H](Cc1ccccc1)NC(=O)[C@H](CCCCN)NC(=O)[C@H](CCCCN)NC(=O)[C@H](Cc1c[nH]c2ccccc12)NC(=O)[C@@H](N)CCCCN)[C@@H](C)CC)[C@@H](C)CC)C(=O)NCC(=O)N[C@@H](C)C(=O)N[C@H](C(=O)N[C@@H](CC(C)C)C(=O)N[C@@H](CCCCN)C(=O)N[C@H](C(=O)N[C@@H](CC(C)C)C(=O)N[C@H](C(=O)N[C@H](C(=O)NCC(=O)N[C@@H](CC(C)C)C(=O)N1CCC[C@H]1C(=O)N[C@@H](C)C(=O)N[C@@H](CC(C)C)C(=O)N[C@@H](CCCCN)C(=O)N[C@@H](CC(C)C)C(=O)N[C@H](C(=O)N[C@@H](CCCCN)C(=O)N[C@@H](CCCCN)C(=O)O)[C@@H](C)O)[C@@H](C)O)[C@@H](C)O)C(C)C)C(C)C [CPα2] | clearly better than others | 800 | 0.50 | 4 | 1 | 800 | 0.63 | 4 | 0.5 | clearly superior in their ability to suppress IL-6 production | superior in their ability to suppress IL-6 production | 6.8 × 10^4 +/− 3.6 × 10^4* CFU | – | –
CC[C@H](C)[C@H](NC(=O)CNC(=O)[C@@H](NC(=O)[C@H](CCCCN)NC(=O)[C@H](CCCCN)NC(=O)[C@H](Cc1ccccc1)NC(=O)[C@H](CC(C)C)NC(=O)[C@H](CCCCN)NC(=O)[C@H](Cc1c[nH]c2ccccc12)NC(=O)[C@@H](N)CCCCN)[C@@H](C)CC)C(=O)NCC(=O)N[C@@H](C)C(=O)N[C@H](C(=O)N[C@@H](CC(C)C)C(=O)N[C@@H](CCCCN)C(=O)N[C@H](C(=O)N[C@@H](CC(C)C)C(=O)N[C@@H](CCCCN)C(=O)N[C@H](C(=O)N[C@@H](CC(C)C)C(=O)N[C@H](C(=O)N[C@H](C(=O)NCC(=O)N[C@@H](CC(C)C)C(=O)N1CCC[C@H]1C(=O)N[C@@H](C)C(=O)N[C@@H](CC(C)C)C(=O)N[C@@H](CCCCN)C(=O)N[C@@H](CC(C)C)C(=O)N[C@H](C(=O)N[C@@H](CC(C)C)C(=O)N[C@@H](CCCCN)C(=O)O)[C@@H](C)O)[C@@H](C)O)[C@@H](C)O)C(C)C)C(C)C)C(C)C [CM4] | clearly better than others | – | – | – | – | – | – | – | – | – | – | – | 4 | 80
CC[C@H](C)[C@H](NC(=O)CNC(=O)[C@@H](NC(=O)[C@H](CCCCN)NC(=O)[C@H](CCCCN)NC(=O)[C@H](Cc1ccccc1)NC(=O)[C@H](CC(C)C)NC(=O)[C@H](CCCCN)NC(=O)[C@H](Cc1c[nH]c2ccccc12)NC(=O)[C@H](CC(C)C)NC(=O)[C@@H](N)CCCCN)[C@@H](C)CC)C(=O)NCC(=O)N[C@@H](C)C(=O)N[C@H](C(=O)N[C@@H](CC(C)C)C(=O)N[C@@H](CCCCN)C(=O)N[C@H](C(=O)N[C@@H](CC(C)C)C(=O)N[C@@H](CCCCN)C(=O)N[C@H](C(=O)N[C@@H](CC(C)C)C(=O)N[C@H](C(=O)N[C@H](C(=O)NCC(=O)N[C@@H](CC(C)C)C(=O)N1CCC[C@H]1C(=O)N[C@@H](C)C(=O)N[C@@H](CC(C)C)C(=O)N[C@@H](CCCCN)C(=O)N[C@@H](CC(C)C)C(=O)N[C@H](C(=O)N[C@@H](CC(C)C)C(=O)N[C@@H](CCCCN)C(=O)O)[C@@H](C)O)[C@@H](C)O)[C@@H](C)O)C(C)C)C(C)C)C(C)C [CM7] | – | – | – | – | – | – | – | – | – | clearly superior in their ability to suppress IL-6 production | – | – | 4 | 100
